# Source: PubChem BioAssay AID330 (DTP/NCI, 2004)
# Values joined by “and” are separate entries in the source; they are usually repeats but may differ in a detail not shown here. Equal entries are not always repeated. Inconclusive results and toxic doses are left out.
# Test system: P388 leukemia ip, CD2F1 mice, survival T/C
# Experiment: NCI In Vivo Anticancer Drug Screen. Data for tumor model P388 Leukemia (intraperitoneal) in CD2F1 (CDF1) mice
# Settings: endpoint: median survival time, higher = longer survival
# Procedure, shortened: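 Mice carrying the transplanted tumor received test compound or vehicle. Survival was recorded in each group, and the value is the treated-group measurement divided by that of the vehicle-treated control group.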
# [1] = dose: 50.0 mg/kg/injection, schedule: Q01DX009 (ip), vehicle: saline with Tween-80
# [2] = dose: 100.0 mg/kg/injection, schedule: Q01DX009 (ip), vehicle: saline with Tween-80
# [3] = dose: 200.0 mg/kg/injection, schedule: Q01DX009 (ip), vehicle: saline with Tween-80
# [4] = dose: 50.0 mg/kg/injection, schedule: Q01DX009 (ip), vehicle: Klucel (hydroxypropylcellulose) (HPC)
# [5] = dose: 100.0 mg/kg/injection, schedule: Q01DX009 (ip), vehicle: Klucel (hydroxypropylcellulose) (HPC)
compound,measurement,setting,value
CC(C)(C)/C(=N\NC(=O)CCCl)c1ccccc1,T/C,[1],97 % of control
same,T/C,[2],97 % of control
same,T/C,[3],95 % of control
[Cl][Pd][Cl].[NH-]C(C(=O)OCc1ccccc1)c1ccccc1.[NH-]C(C(=O)OCc1ccccc1)c1ccccc1 (stereo unspecified),T/C,"dose: 6.25 mg/kg/injection, schedule: Q04DX003 (ip), vehicle: saline",100 % of control
same,T/C,"dose: 12.5 mg/kg/injection, schedule: Q04DX003 (ip), vehicle: saline",100 % of control
same,T/C,"dose: 25.0 mg/kg/injection, schedule: Q04DX003 (ip), vehicle: saline",97 % of control
same,T/C,"dose: 100.0 mg/kg/injection, schedule: Q04DX003 (ip), vehicle: saline",108 % of control
Cc1c2ccncc2c(CNC(=O)C(N)Cc2c[nH]c3ccccc23)c2c3ccccc3n(C)c12 (stereo unspecified),T/C,"dose: 6.25 mg/kg/injection, schedule: Q04DX002 (ip), vehicle: saline with Tween-80",108 % of control
same,T/C,"dose: 12.5 mg/kg/injection, schedule: Q04DX002 (ip), vehicle: saline with Tween-80",112 % of control
same,T/C,"dose: 25.0 mg/kg/injection, schedule: Q04DX002 (ip), vehicle: saline with Tween-80",115 % of control
same,T/C,"dose: 50.0 mg/kg/injection, schedule: Q04DX002 (ip), vehicle: saline with Tween-80",117 % of control
COc1ccc(-c2nc3c(=O)[nH]c(=O)n(C)c3nc2-c2ccc(OC)c(OC)c2)cc1OC,T/C,"dose: 100.0 mg/kg/injection, schedule: Q04DX002 (ip), vehicle: Klucel (hydroxypropylcellulose) (HPC)",97 % of control
same,T/C,"dose: 200.0 mg/kg/injection, schedule: Q04DX002 (ip), vehicle: Klucel (hydroxypropylcellulose) (HPC)",100 % of control
same,T/C,"dose: 400.0 mg/kg/injection, schedule: Q04DX002 (ip), vehicle: Klucel (hydroxypropylcellulose) (HPC)",100 % of control
O=C1OC(C(O)CO)C(O)=C1OC[N+]1(CCCl)CCN(CCCl)CC1 (stereo unspecified),T/C,"dose: 50.0 mg/kg/injection, schedule: Q01DX009 (ip), vehicle: saline",100 % of control and 110 % of control
same,T/C,"dose: 100.0 mg/kg/injection, schedule: Q01DX009 (ip), vehicle: saline",108 % of control and 116 % of control
same,T/C,"dose: 200.0 mg/kg/injection, schedule: Q01DX009 (ip), vehicle: saline",123 % of control
same,T/C,"dose: 400.0 mg/kg/injection, schedule: Q01DX009 (ip), vehicle: saline",157 % of control
Nn1cnc2nc[nH]c2c1=O,T/C,"dose: 100.0 mg/kg/injection, schedule: Q01DX001 (ip), vehicle: saline with Tween-80",101 % of control
same,T/C,"dose: 200.0 mg/kg/injection, schedule: Q01DX001 (ip), vehicle: saline with Tween-80",104 % of control
same,T/C,"dose: 400.0 mg/kg/injection, schedule: Q01DX001 (ip), vehicle: saline with Tween-80",95 % of control
COc1cc([C@@H]2c3cc4c(c(O)c3C[C@H]3COC(=O)[C@@H]32)OCO4)cc(OC)c1OC,T/C,"dose: 0.12 mg/kg/injection, schedule: Q01DX009 (ip), vehicle: saline",113 % of control
same,T/C,"dose: 0.12 mg/kg/injection, schedule: Q01DX009 (ip), vehicle: suspension in saline",111 % of control
same,T/C,"dose: 0.25 mg/kg/injection, schedule: Q01DX009 (ip), vehicle: saline",119 % of control
same,T/C,"dose: 0.25 mg/kg/injection, schedule: Q01DX009 (ip), vehicle: suspension in saline",119 % of control
same,T/C,"dose: 0.5 mg/kg/injection, schedule: Q01DX009 (ip), vehicle: saline",124 % of control
CCOC(=O)C(=CNc1cc(C(F)(F)F)ccc1N1CCOCC1)C(=O)OCC,T/C,[4],97 % of control
same,T/C,[5],100 % of control
same,T/C,"dose: 200.0 mg/kg/injection, schedule: Q01DX009 (ip), vehicle: Klucel (hydroxypropylcellulose) (HPC)",100 % of control
C/C(=N\Nc1cc(C)nc2ccc(C)cc12)c1cn(C)n(-c2ccccc2)c1=O,T/C,[4],97 % of control
same,T/C,[5],86 % of control
COc1ccc(C=Nc2c(N)[nH]c(=S)[nH]c2=O)cc1,T/C,"dose: 100.0 mg/kg/injection, schedule: Q04DX002 (ip), vehicle: saline with Tween-80",100 % of control
same,T/C,"dose: 200.0 mg/kg/injection, schedule: Q04DX002 (ip), vehicle: saline with Tween-80",106 % of control
same,T/C,"dose: 400.0 mg/kg/injection, schedule: Q04DX002 (ip), vehicle: saline with Tween-80",107 % of control
same,T/C,"dose: 600.0 mg/kg/injection, schedule: Q04DX002 (ip), vehicle: saline with Tween-80",106 % of control
CCO/C=C1/N=C(c2ccccc2Cl)OC1=O,T/C,"dose: 60.0 mg/kg/injection, schedule: Q01DX005 (ip), vehicle: saline with Tween-80",106 % of control
same,T/C,"dose: 120.0 mg/kg/injection, schedule: Q01DX005 (ip), vehicle: saline with Tween-80",118 % of control
same,T/C,"dose: 240.0 mg/kg/injection, schedule: Q01DX005 (ip), vehicle: saline with Tween-80",98 % of control
O=[N+]([O-])c1ccc(CCCl)cc1,T/C,[1],99 % of control
same,T/C,[2],88 % of control
same,T/C,[3],90 % of control
